The subject of this assay is colon tumor cells re-implanted in secondary recipients. The assay can be described thus: Secondary transplant of GPR49 mAb+irinotecan treated tumor cells. The settings on record: 140 day follow-up. It is filed as in vivo, mouse. The text has this: Isolated tumor cells from control or GPR49 mAb+irinotecan treated tumors from the in vivo study outlined in Example 3 were harvested, pooled, dissociated and re-implanted in a limiting dilution secondary transplant assay to measure cancer stem cell frequency. For each treatment group, 8 mice were implanted with 10, 30, 100 cells. […]

SMILES strings stand for the structures.

`CCc1c2c(nc3ccc(OC(=O)N4CCC(N5CCCCC5)CC4)cc13)-c1cc3c(c(=O)n1C2)COC(=O)[C@]3(O)CC` [Irinotecan]: the mice with tumors was 7/8.

(Values after US9221907B2, “Anti-GPR49 monoclonal antibodies” (Bionomics Inc., priority 2011, dated 2015).)
